Data on six compounds can be found in patent US5332733A, “Heterocyclically substituted piperazinoakylbenzoxazine and piperazinoalkylbenzothiazine compounds, processes for preparing them, and medicaments containing them” (Kali-Chemie Pharma GmbH, priority 1990, dated 1994).

Each structure is given as a SMILES string.

A word on the inhibition in vivo: it is the percentage by which the read-out fell short of the control. The low end stands for a response near the control, the high end for a response far below the control.

In assay [1] the test system is histamine-induced anaphylactoid cutaneous reaction. The assay is described as follows: Inhibition of histamine-induced anaphylactoid cutaneous reaction in rats. The following applies: Rattus norvegicus, 1 h, 2 × 10^-5 mole/kg per os, one hour before ovalbumin challenge. The format is in vivo, Sprague-Dawley rats. The procedure: (§1) 1. Determining Inhibition of Passive Cutaneous Anaphylaxis (PCA) and Histamine-Induced Anaphylactoid Cutaneous Reaction
(§2) The inhibition of the passive cutaneous anaphylaxis and of the anaphylactoid cutaneous reaction induced by histamine was determined as follows:
(§3) Sprague-Dawley rats having a body weight of 150-180 g were injected intradermally in one flank with 50 μl of a 1:75 dilution of the IgE-rich ovalbumin antiserum in physiological saline solution to passively sensitize them to ovalbumin.
(§4) 24 hours after sensitization a solution of 8.25 mg/kg of ovalbumin and 26.4 mg/kg of a blue dye (Evans's Blue) was administered to the rats intravenously according to Martin et al. to trigger passive cutaneous anaphylaxis.
To determine the histamine-induced anaphylactoid skin reaction, the animals are injected intradermally in the flank opposite to the antiserum administration with 50 μl of a physiological saline solution containing 0.8 mg/ml histamine directly before the intravenous injection of the solution containing the ovalbumin and the blue dye.
(§5) On the day of the experiment the test substances were dissolved in distilled water which contained 1 vol. % dimethylformamide and 1 vol. % of Tween™ 20 (=polyoxyethylene (20) sorbitan monolaurate). One hour before administration of the ovalbumin challenge, each animal was orally administered 2×10^-5 mole/kg of test substance in 0.5 ml of solution. For comparison purposes a control group received only the solvent.
(§6) The edematous anaphylactic (PCA) and anaphylactoid (histamine-induced) reactions caused by the stimulation of the intravenous ovalbumin injection, which manifested themselves by edema formation, swelling and exudation of blue dye, were evaluated 30 minutes after their initiation by the intravenous ovalbumin injection. This was done by visually determining the extent to which the blue dye emerged at the sites of edema formation. The percentage inhibition of anaphylactic and anaphylactoid reactions induced by the test substances in comparison with the reactions of the control animals not treated with any test substance was determined using comparison scales.
(§7) The results obtained using compounds of formula I according to the foregoing test methods are shown in the following Table A. The example numbers given for the compounds of formula I relate to the subsequent preparative examples.

Assay [2] concerns passive cutaneous anaphylaxis (PCA). The assay is described as follows: Inhibition of passive cutaneous anaphylaxis (PCA) in rats. Conditions: Rattus norvegicus, 1 h, 2 × 10^-5 mole/kg per os, one hour before ovalbumin challenge. It counts as in vivo, Sprague-Dawley rats. On the procedure:
as §1
The PCA reaction is carried out following the methods described by Goose et al. (J. N. Immunology 16 (1969), 749) and by Martin et al. (Arch. Pharmacol. 316 (1981), 186).
The IgE-rich ovalbumin antiserum used in the test was obtained from immunized Brown-Norway rats. The were immunized with an intraperitoneal injection of a mixture of 100 μg of ovalbumin with a Bordetella pertussis suspension (Vaxicoq™, Manufactured by Institute Merieux, containing 5×10^9 organisms and 1.25 mg Al(OH)3). After 20 days the animals were re-immunized with a further intraperitoneal injection of a solution of 10 μg ovalbumin in 0.5 ml physiological saline solution. After a further four days the blood was removed from the animals and centrifuged. The resulting antiserum was stored at -20° C. until use.
as §2, §3, §4, §5, §6, §7

For the compound `Cc1ccnc(N2CCN(CCCCC3Sc4ccccc4NC3=O)CC2)c1` (stereo not drawn) [Example 1, 2-{4-[4-(4-methylpyridin-2-yl)-piperazin-1-yl]butyl}-2H-1,4-benzothiazine-3(4H)-one], the inhibition in vivo at 20 µmol/kg in assay [1] worked out at 55%; in assay [2] it was 88%.
The matching figures for `Cc1ccnc(N2CCN(CCCCC3Oc4ccccc4NC3=O)CC2)c1` (stereo not drawn) [Example 7]: 40% and 70%.
The matching figures for `Cc1ccnc(N2CCN(CCCC3Sc4ccccc4NC3=O)CC2)c1` (stereo not drawn) [Example 8]: 60% and 73%.
The matching figures for `Cc1ccnc(N2CCN(CCCC3Oc4ccccc4NC3=O)CC2)c1` (stereo not drawn) [Example 9]: 30% and 60%.
In the case of `Cc1ccnc(N2CCN(CCCC3Sc4ccccc4NC3=S)CC2)c1` (stereo not drawn) [Example 11], the inhibition in vivo at 20 µmol/kg came to 20% in assay [1] and 55% in assay [2].
`O=C1Nc2ccccc2SC1CCCN1CCN(c2ccc(Cl)cn2)CC1` (stereo not drawn) [Example 15]: the inhibition in vivo at 20 µmol/kg in assay [1] was 30%; in assay [2], 60%.
